Like-named read-outs stand apart in the source and are kept apart here.
Assays:
[1] = Proliferation of enzyme-dispersed (ED) human VSMC cultures; type: cell-based; settings: human, aortic vsmc ed cultures, cell counting, read-out: concentrations that caused cell death
Experimental: (§1) Human aortic VSMC cultures. Adult human VSMC were obtained from 6 transplant donors (either sex, age range from 3 to 54 years) using the enzyme dispersal or explant technique. In one case, the same donor (a person) was used to establish both an enzyme-dispersed (ED) and explant-derived (EX) cell culture. Prior to enzyme-dispersion or explanting treatment, human aortas were obtained within 18 h of death. The endothelium layer was removed with a scalpel blade and strips of smooth muscle cells (tunica media) were removed with forceps and chopped into small pieces (1 mm^3).
(§2) ED Cultures. The aortic pieces were washed once with serum-free Hanks Balanced Salt Solution, then enzyme-dispersed with collagenase and elastase, as described in Example 7. The cells were plated at an initial density of 1.5 x 10^5 cells/cm^2 and incubated in a humidified atmosphere at 37°C in 5% CO2 in air. The cells were subcultured every 6-7 days (at stationary phase) by releasing them with trypsin/EDTA and diluting them 1:1.5 in D-MEM + 10% FCS. Subcultured ED cells were cultured with D-MEM + 20% FCS 24 h after plating, and thereafter at 48 h intervals.
(§3) Cell counting, DNA synthesis assays and assays for total and active TGF-beta were performed as described in Example 7.

human ED cultures = assay: as above; type: cell-based; settings: 96 h, cell counting
Experimental: as §1, §2, §3

[2] = system: Vascular smooth muscle cells
[3] = system: Vascular smooth muscle cells (BO54); assay: Scratch-migration assay with morphological toxicity grading; type: cell-based, baboon; set-up: key: - = no toxicity; +1 = minimal; +2 = mild; +3 = moderate; +4 = marked toxicity
Experimental: Scratch assays to determine the extent of smooth muscle cell migration inhibition by cytochalasin B were performed in accordance with the following protocol:
Vascular smooth muscle cells (BO54) were derived from explants of baboon aortic smooth muscle, as described in Example 1. The cells were grown in flat bottom, six well tissue culture plates, which hold about 5 ml of medium. The vascular smooth muscle cells were plated at 200,000 cells/well and placed at 37°C in a humidified 5% CO2 incubator for 18 hours. The wells were then scratched with a sterile portion of a single edge razor blade that was held by clamp or pliers and was brought aseptically into contact with the bottom of the well at a 90° angle. The cells from a small area along the scratch were removed by a sterile cotton tipped applicator while the blade was in contact with the bottom of the well. After incubation, the presence of cells in the "scratched" area is indicative of cell migration across the scratch line.
Briefly, a stock solution of cytochalasin B (Sigma Chemical Co.) in dimethyl sulfoxide (DMSO) at 1 mg/ml was prepared. Test dilutions of cytochalasin B or control medium were added. Each experiment included two sets of plates: • A set: Test agent exposure for 1, 3, 6, 8 and 10 days only; and • B set: Test agent exposure for 1, 3, 6, 8 and 10 days, followed by a seven day recovery time with control medium. Both sets of plates were fixed (10% formalin in PBS) and stained (0.02% crystal violet) at the end of the timed exposures. Test concentrations for cytochalasin B were 1, 0.1 and 0.01 µg/ml, and a negative medium control was included. Fresh medium and drug were supplied 3 times per week.
In this Table, "M" indicates Migration Grade, wherein - = no migration; +1 = minimal; +2 = mild; +3 = moderate; and +4 = marked (maximum density; limit of cell contact inhibition) migration of vascular smooth muscle cells into the cleared area adjacent to the scratch. In this Table, "T" denotes a morphological Toxicity Grade, wherein - = no toxicity; +1 = minimal; +2 = mild; +3 = moderate; and +4 = marked toxicity. The migration results are expressed as "Grade in the Cleared Area of the Well / Grade in an Undisturbed Region of the Well." The toxicity values represent a grade for all cells in each well.

CC/C(=C(\c1ccccc1)c1ccc(OCCN(C)C)cc1)c1ccccc1 [tamoxifen, trans-2-[4-(1,2-diphenyl-1-butenyl)phenoxy]-N,N-dimethylethylamine]
MCC at 96 h [1]: > 33 µM
concentrations that did not affect the rate of proliferation (human ED cultures): below 10 µM

cytochalasin B
morphological cytotoxicity grade ([2]; 0.01ug, 24 hrs + 24 hrs): 0
morphological cytotoxicity grade ([2]; 0.01ug, 24 hrs + 48 hrs): 0
morphological cytotoxicity grade ([2]; 0.01ug, 24 hrs + 72 hrs): 0
morphological cytotoxicity grade ([2]; 0.01ug, 24 hrs + 96 hrs): 0
morphological cytotoxicity grade ([2]; 0.01ug, 24 hrs + 120 hrs): 0
morphological cytotoxicity grade ([2]; 0.01ug, Continuous 6 hrs): 0
morphological cytotoxicity grade ([2]; 0.01ug, Continuous 24 hrs (r11, 24 hr exposure series)): 0
morphological cytotoxicity grade ([2]; 0.01ug, Continuous 24 hrs (r17, long term continuous series)): 0
morphological cytotoxicity grade ([2]; 0.01ug, Continuous 48 hrs): 0
morphological cytotoxicity grade ([2]; 0.01ug, Continuous 72 hrs): 0
morphological cytotoxicity grade ([2]; 0.01ug, Continuous 96 hrs): 0
morphological cytotoxicity grade ([2]; 0.01ug, Continuous 120 hrs): 0
morphological cytotoxicity grade ([2]; 0.01ug, Continuous 168 hrs): 0
morphological cytotoxicity grade ([2]; 0.01ug, Continuous 216 hrs): 0
morphological cytotoxicity grade ([2]; 0.01ug, Continuous 264 hrs): 0
morphological cytotoxicity grade ([2]; 0.1 ug, 5 min + 2 hrs): 0
morphological cytotoxicity grade ([2]; 0.1 ug, 5 min + 6 hrs): 0
morphological cytotoxicity grade ([2]; 0.1 ug, 5 min + 24 hrs): 0
morphological cytotoxicity grade ([2]; 0.1 ug, 5 min + 48 hrs): 0
morphological cytotoxicity grade ([2]; 0.1 ug, 5 min + 72 hrs): 0
morphological cytotoxicity grade ([2]; 0.1 ug, 5 min + 96 hrs): 0
morphological cytotoxicity grade ([2]; 0.1 ug, 5 min + 120 hrs): 0
morphological cytotoxicity grade ([2]; 0.1 ug, 24 hrs + 24 hrs): 0.5
morphological cytotoxicity grade ([2]; 0.1 ug, 24 hrs + 48 hrs): 1
morphological cytotoxicity grade ([2]; 0.1 ug, 24 hrs + 72 hrs): 0.5
morphological cytotoxicity grade ([2]; 0.1 ug, 24 hrs + 96 hrs): 0
morphological cytotoxicity grade ([2]; 0.1 ug, 24 hrs + 120 hrs): 0
morphological cytotoxicity grade ([2]; 0.1 ug, Continuous 6 hrs): 0
morphological cytotoxicity grade ([2]; 0.1 ug, Continuous 24 hrs (r11, 24 hr exposure series)): 1
morphological cytotoxicity grade ([2]; 0.1 ug, Continuous 24 hrs (r17, long term continuous series)): 0
morphological cytotoxicity grade ([2]; 0.1 ug, Continuous 48 hrs): 1
morphological cytotoxicity grade ([2]; 0.1 ug, Continuous 72 hrs): 1
morphological cytotoxicity grade ([2]; 0.1 ug, Continuous 96 hrs): 2
morphological cytotoxicity grade ([2]; 0.1 ug, Continuous 120 hrs): 1
morphological cytotoxicity grade ([2]; 0.1 ug, Continuous 168 hrs): 1
morphological cytotoxicity grade ([2]; 0.1 ug, Continuous 216 hrs): 1
morphological cytotoxicity grade ([2]; 0.1 ug, Continuous 264 hrs): 1
morphological cytotoxicity grade ([2]; 1 ug, 5 min + 2 hrs): 0
morphological cytotoxicity grade ([2]; 1 ug, 5 min + 6 hrs): 1
morphological cytotoxicity grade ([2]; 1 ug, 5 min + 24 hrs): 0.5
morphological cytotoxicity grade ([2]; 1 ug, 5 min + 48 hrs): 1
morphological cytotoxicity grade ([2]; 1 ug, 5 min + 72 hrs): 1
morphological cytotoxicity grade ([2]; 1 ug, 5 min + 96 hrs): 1
morphological cytotoxicity grade ([2]; 1 ug, 5 min + 120 hrs): 1
morphological cytotoxicity grade ([2]; 1 ug, 24 hrs + 24 hrs): 3
morphological cytotoxicity grade ([2]; 1 ug, 24 hrs + 48 hrs): 4
morphological cytotoxicity grade ([2]; 1 ug, 24 hrs + 72 hrs): 4
morphological cytotoxicity grade ([2]; 1 ug, 24 hrs + 96 hrs): 4
morphological cytotoxicity grade ([2]; 1 ug, 24 hrs + 120 hrs): 4
morphological cytotoxicity grade ([2]; 1 ug, Continuous 6 hrs): 3
morphological cytotoxicity grade ([2]; 1 ug, Continuous 24 hrs (r11, 24 hr exposure series)): 3
morphological cytotoxicity grade ([2]; 1 ug, Continuous 24 hrs (r17, long term continuous series)): 3
morphological cytotoxicity grade ([2]; 1 ug, Continuous 48 hrs): 3
morphological cytotoxicity grade ([2]; 1 ug, Continuous 72 hrs): 3
morphological cytotoxicity grade ([2]; 1 ug, Continuous 96 hrs): 3
morphological cytotoxicity grade ([2]; 1 ug, Continuous 120 hrs): 3
morphological cytotoxicity grade ([2]; 1 ug, Continuous 168 hrs): 4
morphological cytotoxicity grade ([2]; 1 ug, Continuous 216 hrs): 4
morphological cytotoxicity grade ([2]; 1 ug, Continuous 264 hrs): 4
cytotoxicity grade ([2]; 1 µg/ml, anti-migration/contraction effective dose, grade 1 = minimal): 1
morphological cytotoxicity grade ([2]; 10 ug, 5 min + 2 hrs): 0.5
morphological cytotoxicity grade ([2]; 10 ug, 5 min + 6 hrs): 4
morphological cytotoxicity grade ([2]; 10 ug, 5 min + 24 hrs): 4
morphological cytotoxicity grade ([2]; 10 ug, 5 min + 48 hrs): 4
morphological cytotoxicity grade ([2]; 10 ug, 5 min + 72 hrs): 4.5
morphological cytotoxicity grade ([2]; 10 ug, 5 min + 96 hrs): 5
morphological cytotoxicity grade ([2]; 10 ug, 5 min + 120 hrs): 5
morphological Toxicity Grade ([3]; 7-day Recovery Post Exposure, 0.01 µg/mL, Day 1): -
morphological Toxicity Grade ([3]; 7-day Recovery Post Exposure, 0.01 µg/mL, Day 3): -
morphological Toxicity Grade ([3]; 7-day Recovery Post Exposure, 0.01 µg/mL, Day 6): -
morphological Toxicity Grade ([3]; 7-day Recovery Post Exposure, 0.01 µg/mL, Day 8): -
morphological Toxicity Grade ([3]; 7-day Recovery Post Exposure, 0.01 µg/mL, Day 10): -
morphological Toxicity Grade ([3]; 7-day Recovery Post Exposure, 0.1 µg/mL, Day 1): -
morphological Toxicity Grade ([3]; 7-day Recovery Post Exposure, 0.1 µg/mL, Day 3): -
morphological Toxicity Grade ([3]; 7-day Recovery Post Exposure, 0.1 µg/mL, Day 6): -
morphological Toxicity Grade ([3]; 7-day Recovery Post Exposure, 0.1 µg/mL, Day 8): -
morphological Toxicity Grade ([3]; 7-day Recovery Post Exposure, 0.1 µg/mL, Day 10): -
morphological Toxicity Grade ([3]; Continuous Exposure, 0.01 µg/mL, Day 1): -
morphological Toxicity Grade ([3]; Continuous Exposure, 0.01 µg/mL, Day 3): -
morphological Toxicity Grade ([3]; Continuous Exposure, 0.01 µg/mL, Day 6): -
morphological Toxicity Grade ([3]; Continuous Exposure, 0.01 µg/mL, Day 8): -
morphological Toxicity Grade ([3]; Continuous Exposure, 0.01 µg/mL, Day 10): -
morphological Toxicity Grade ([3]; Continuous Exposure, 0.1 µg/mL, Day 1): -
morphological Toxicity Grade ([3]; Continuous Exposure, 1.0 µg/mL, Day 6): +4
morphological Toxicity Grade ([3]; Continuous Exposure, 1.0 µg/mL, Day 8): +4
morphological Toxicity Grade ([3]; Continuous Exposure, 1.0 µg/mL, Day 10): +4
